Laboratory results as given in PubChem BioAssay AID504763 (Sanford-Burnham Center for Chemical Genomics, 2011).
Active and inactive are the calls of the source. The rule behind the calls is not given here.

These compounds were tested against Hexokinase-1 (Homo sapiens) (UniProt P19367) (assay: HK1 enzyme inhibitors – biochemical, selectivity assay for HKDC1 inhibitor project, dose response (AID 504763)). Conditions: biochemical inhibition.
Hexokinase-1 (Homo sapiens), sequence (P19367 whole entry, looked up): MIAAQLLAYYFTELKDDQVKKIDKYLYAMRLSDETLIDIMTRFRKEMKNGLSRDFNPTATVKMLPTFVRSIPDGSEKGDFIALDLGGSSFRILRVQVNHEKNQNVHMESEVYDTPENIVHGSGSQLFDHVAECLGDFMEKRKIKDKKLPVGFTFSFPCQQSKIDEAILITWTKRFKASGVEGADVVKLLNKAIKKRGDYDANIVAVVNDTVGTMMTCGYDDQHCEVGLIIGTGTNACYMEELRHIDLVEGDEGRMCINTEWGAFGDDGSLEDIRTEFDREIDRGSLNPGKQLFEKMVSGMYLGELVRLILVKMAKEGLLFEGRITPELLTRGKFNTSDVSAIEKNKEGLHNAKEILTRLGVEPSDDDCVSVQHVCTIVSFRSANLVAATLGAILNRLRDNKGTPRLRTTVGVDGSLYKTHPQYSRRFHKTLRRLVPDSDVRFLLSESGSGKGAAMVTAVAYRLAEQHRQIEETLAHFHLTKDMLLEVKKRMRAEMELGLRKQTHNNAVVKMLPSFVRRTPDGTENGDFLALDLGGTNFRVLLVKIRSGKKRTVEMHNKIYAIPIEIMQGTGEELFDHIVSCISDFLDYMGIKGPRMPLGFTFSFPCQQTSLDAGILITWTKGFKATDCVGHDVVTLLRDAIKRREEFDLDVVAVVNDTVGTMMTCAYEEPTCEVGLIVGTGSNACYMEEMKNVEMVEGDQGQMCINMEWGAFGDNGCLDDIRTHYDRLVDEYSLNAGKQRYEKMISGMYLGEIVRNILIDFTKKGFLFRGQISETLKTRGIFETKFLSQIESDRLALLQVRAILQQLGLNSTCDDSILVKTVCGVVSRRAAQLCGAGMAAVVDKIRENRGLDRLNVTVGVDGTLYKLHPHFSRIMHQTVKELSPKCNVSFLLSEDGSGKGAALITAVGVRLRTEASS

Compound | IC50
N#C/C(=C(/O)CCl)c1nc2c(s1)CCc1ccccc1-2 | inactive
COCc1cc(C2C(C(=O)c3ccco3)=C(O)C(=O)N2CCOCCO)ccc1O (stereo not given) | > 80 µM (inactive)
COc1ccc(CN2C(=O)c3cccnc3C2O)cc1 (stereo not given) | > 80 µM (inactive)
Cc1ccc(NC2c3ncccc3C(=O)N2c2ccccc2C)cc1C (stereo not given) | > 80 µM (inactive)
O=C1C(Cl)=C(NCCc2ccccc2)C(=O)c2ccccc21 | 18.5 µM
CCCc1nc2c(c(=O)c3ccccc3n2C)c(=O)n1-c1ccc(F)cc1 | 6.47 µM
CC(NC1=CC(=O)c2cccnc2C1=O)C(O)c1ccccc1 (stereo not given) | inactive
Cc1nc2c(O)c3c(c(O)c2nc1C)C1C=CC3CC1 | 2.08 µM
Cc1cccc(C)c1Nc1nnc(SCc2cn3cccc(C)c3n2)s1 | > 80 µM (inactive)
Cc1ccc(N=Cc2cc(Cc3ccccc3Cl)cc([N+](=O)[O-])c2O)c(O)c1 | > 80 µM (inactive)
Cc1cccc2c(N=NC(=O)c3ccc(NS(=O)(=O)c4cccs4)cc3)c(O)[nH]c12 | inactive
COC1(NS(=O)(=O)c2ccc(Br)cc2)C(C)=CC(=O)C=C1C | > 80 µM (inactive)
O=C(CNC(=O)/C=C/c1ccco1)N=Nc1c(O)[nH]c2ccccc12 | > 80 µM (inactive)
C=CCn1c(SCC(=O)Nc2sc3c(c2C#N)CCC(C)C3)nc2cc(C(=O)O)ccc2c1=O (stereo not given) | > 80 µM (inactive)
COc1cc(/C=C(\C#N)c2nc3ccc(C)cc3[nH]2)cc([N+](=O)[O-])c1O | 18 µM
O=C(NCCc1ccccc1)c1cnn2c(C(F)F)cc(C3CC3)nc12 | 5.54 µM
O=[N+]([O-])c1ccc(NN=Cc2ccc(O)cc2O)nc1 | > 80 µM (inactive)
CC1COCC(C)N1C1=C(Cl)C(=O)c2ccccc2C1=O (stereo not given) | > 80 µM (inactive)
COCC(=O)OC1CCn2c1nc1c2C(=O)C(C)=C(NC(C)=O)C1=O (stereo not given) | 2.15 µM
Oc1ccc(/C=N/Nc2ncc(Br)cn2)c(O)c1 | > 80 µM (inactive)
